Where a name gives a salt, the structure may show the parent alone.
Tests used:
[1] = antihistamic effect, literature value; cited from earlier work
[2] = Analgetic activity (acetic acid writhing); assay type: in vivo, mouse (male, ddy-strain); details: Mus musculus, read-out: ED50 (analgetic activity)
Protocol: Male mice of ddy-strain having 15-23 g of body weight are used. One test group consists of 10 mice. The compound to be tested is administered orally by procedures similar to the method mentioned in (II). Fifty minutes after the administration, 0.1 ml of 0.6% acetic acid aqueous solution/10 g body weight is injected intraperitoneally. In case of the mice administered orally with the reference compound (Haloperidol), the injection is made 110 minutes after the administration. The number of writhings shown after 10 minutes is counted for 10 minutes and the ED50 value of respective compounds is calculated in comparison with the number of writhings shown by control group. [Reference: R. Koster, M. Anderson and E. I. Debeer: Fed. Proc., 18, 412, (1959)]

in vivo = details: mouse
Protocol: Mice of ddy-strain having 20-22 g of body weight are used. One test group consists of 10 mice.
Oral administration: Compound to be tested is suspended in 1% Gummi Arabicum physiological NaCl aqueous solution.
Intravenuous administration: Compound to be tested is dissolved in 50% propyleneglycol aqueous solution.

[3] = Halothane anesthesia increasing activity (righting reflex); assay type: in vivo, mouse (male, ddy-strain); details: oral; for Time (minutes) between introduction of anesthesia and waking: 8 mg/kg, 1 hour before 4% Halothane
Protocol: Male mice of ddy-strain having about 20 g body weight are used. One test group consists of 10 mice. An aqueous Gummi Arabicum suspension of test compound (80 mg of a compound to be tested and 1 g of Gummi Arabicum/100 ml of physiological NaCl solution) is administered orally to each mouse at the dosage of 8 mg of test compound/kg body. One hour after the administration, each mouse is placed in a gas respiration chamber (13×13×24 cm) and oxygen gas containing 4% of Halothane [2-bromo-2-chloro-1,1,1-trifluoroethane] is blown into the chamber at the velocity of 2 l/min for 3 minutes. A mouse anaesthetized is taken out from the chamber and the time between the introduction of anesthesia to waking is measured by righting reflex as the index. To mice of the control group, 1% Gummi Arabicum aqueous physiological solution is orally administered at the dosage of 0.1 ml/10 g body. [Reference: M. J. Turnbull and J. W. Watkins: Br. J. Pharmac., 58, 27-35 (1976)]
Same procedures as mentioned in (II)-(A) are employed, except that the amount of test compound to be orally administered is changed in 4 steps at the dosage of 0.5 mg/kg, 1 mg/kg, 2 mg/kg and 4 mg/kg respectively to measure the relationship between the dosage and degree of strength of anesthesia increasing activity.

[4] = Hexabarbital sleep increasing activity (righting reflex); assay type: in vivo, mouse (male, ddy-strain); details: oral, Hexabarbital Na 70 mg/kg i.p.
Protocol: Male mice of ddy-strain having 20 to 25 g body weight are starved for 24 hours. One test group consists of 10 mice. An aqueous Gummi Arabicum suspension of test compound (0.05 g of test compound and 1 g of Gummi Arabicum/100 ml of physiological NaCl solution) is administered orally at the dosage mentioned in the Table 4. One hour after the administration 0.7% of Hexabarbitol.Na-salt is intraperitonerally administered at the dosage of 70 mg/kg body weight. The time between the introduction of sleep to waking is measured by righting reflex as the index. [Reference: A. M. Hjort, De E. J. Beer and D. W. Fassett; J. Pharmac., Exptl.

[5] = target: T1, enucleated ileum of a guinea pig (Cavia porcellus, UniProt P31389); assay: Antihistamine activity test in vitro (enucleated guinea pig ileum, histamine retraction, pA2 by Van Rossam method); details: 10^-6 g/ml test compound, 5 minutes before histamine, 36° C.
T1 construct: the tissue of ileum is cut to a length of 2.5 to 3.0 cm and suspended in an organ bath; from tissue; host or cells: isolated ileum from the ileocecal region of male guinea pig
T1 sequence (P31389 whole entry): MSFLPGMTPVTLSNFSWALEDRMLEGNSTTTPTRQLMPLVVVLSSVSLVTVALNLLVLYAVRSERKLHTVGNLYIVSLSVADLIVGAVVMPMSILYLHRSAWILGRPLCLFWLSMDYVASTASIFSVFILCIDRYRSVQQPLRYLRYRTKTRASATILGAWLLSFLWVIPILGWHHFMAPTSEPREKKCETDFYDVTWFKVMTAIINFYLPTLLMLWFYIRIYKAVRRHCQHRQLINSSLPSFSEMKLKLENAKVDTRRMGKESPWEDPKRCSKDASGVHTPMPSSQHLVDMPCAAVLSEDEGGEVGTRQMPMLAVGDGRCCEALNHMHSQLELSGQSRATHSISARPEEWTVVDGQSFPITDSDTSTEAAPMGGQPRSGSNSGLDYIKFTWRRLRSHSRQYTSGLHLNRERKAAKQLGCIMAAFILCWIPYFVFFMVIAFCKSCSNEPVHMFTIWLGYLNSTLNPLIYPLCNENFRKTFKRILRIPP
Protocol: As to the test method for determining antihistamine activity of a compound in vitro, a method of using an enucleated ileum of a guinea pig is generally accepted.
A male guinea pig having 300 to 500 g body weight is killed by blood letting. An ileum having a length of 15 cm being enculeated from the ileocecal region is dipped into Tyrode's solution (which is prepared from […], 0.2 g of KCl, 0.2 g of CaCl2, 1.0 g of glucose, 1.0 g of NaHCO3, 0.065 g of NaHPO4.2H2 O and 0.2135 g of MgCl2.6H2 O to make 1000 ml in total volume by adding water). Then the tissue of ileum is cut to a length of 2.5 to 3.0 cm and suspended in an organ bath filled with 30 ml of Tyrode's solution. The organ bath is kept at a temperature of 36° C. and a mixed gas consisting of 5% of CO2 and 95% of O2 is blown into the bath. 10 Minutes after the blowing, 10^-6 M of histamine is added to the bath to examine the sensitivity of the tissue and a reaction curve (control) with respect to the dosage of histamine is obtained. After the dosage of histamine-reaction curve (control) becomes constant, 10^-6 g/ml of a compound to be tested is added to the bath and further histamine is added 5 minutes later to obtain a dosage-reaction curve. Retraction of the ileum is recorded on a pen-recorder through an isotonic transducer [TD-112S manufactured by Nihon Koden]. Antihistamine activity of the test compound is determined as pA2 value by the "Van Rossam" method [J. M. Van Rossam; Arch. Inst. Pharmacodyn., 143, 299 (1963)] wherein the maximum retraction of ileum caused by histamine shown in the control curve is 100%.

[6] = Activity for inhibiting fighting behavior of mouse isolated singly for a long period of time; assay type: in vivo, mouse (male, ddy-strain); details: positive if fighting no longer than 5 seconds in a minute, range in parentheses, read-out: ED50 (inhibition of fighting behavior)
Protocol: Individual male mice of ddy-strain having 15 to 20 g of body weight are breeded separately in respective cages for 1 month. One test group consists of 10 pairs of mice. The pairs of mice are selected so that when one mouse is taken into the home cage of another, the two mice fight together continuously for over 30 seconds. ED50 values are calculated by administering the respective test compounds to each test groups of mice. Activity for inhibiting fighting behavior of the test compound is determined as positive in case the administered mice only continue the fighting for no longer than 5 seconds in a minute. When the mice continue the fighting over 5 seconds they are forced to separate for the purpose of reducing the number of injured mice. [Reference: C. Y. Yen, R. L. Stanger and N. Millman: Arch. Int. Pharmacodyn., 123, 179 (1959)]

[7] = 50 min, oral, 50 minutes before acetic acid i.p., range in parentheses

Structure (SMILES)	pA2 [1]	ED50 [2, 7]	LD50 (in vivo; iv, female mice)	LD50 (in vivo; iv, male mice)	LD50 (in vivo; po, female mice)	LD50 (in vivo; po, male mice)	Anesthesia increasing activity ([3]; 0.5 mg/kg)	Anesthesia increasing activity ([3]; 1 mg/kg)	Anesthesia increasing activity ([3]; 2 mg/kg)	Anesthesia increasing activity ([3]; 4 mg/kg)	Time (minutes) between introduction of anesthesia and waking [3]	Sleep time (min.) [Mean ± SD] ([4]; 0.5 mg/kg)	Sleep time (min.) [Mean ± SD] ([4]; 1.0 mg/kg)	Sleep time (min.) [Mean ± SD] ([4]; 2.0 mg/kg)	Sleep time (min.) [Mean ± SD] ([4]; 4 mg/kg)	Sleep time (min.) [Mean ± SD] ([4]; 8 mg/kg)	Kb [5]	ED50 [6]	ED50 ([2]; po, 110 min)	Sleep time (min.) [Mean ± SD] ([4]; 16 mg/kg)
CC(C)(C)NCC(O)COc1cccc2c1CCC(=O)N2 (stereo not shown) [5-(3-tert-butylamino-2-hydroxy)propoxy-3,4-dihydrocarbostyril hydrochloride]	5.02																			
O=C1CCc2ccc(OCCCN3CCN(c4ccccc4)CC3)cc2N1 [Compound 6, 7-[3-(4-Phenylpiperazinyl)propoxy]-3,4-dihydrocarbostyril dihydrochloride]		2.31 mg/kg	250 mg/kg	240 mg/kg	890 mg/kg	920 mg/kg	8.2 ± 2.6 min	10.3 ± 3.3 min	12.1 ± 4.2 min	16.6 ± 5.1 min	16.8 ± 6.2 min	43.76 ± 6.09 min	51.24 ± 11.75 min	54.11 ± 7.80 min	65.13 ± 11.59 min	85.83 ± 12.24 min	0.457 nM	0.7 mg/kg		
O=C1CCc2c(cccc2OCCCN2CCCN(c3ccccc3)CC2)N1 [Compound 31, 5-[3-(4-Phenylhomopiperazinyl)propoxy]-3,4-dihydrocarbostyril]		1.92 mg/kg	248 mg/kg	256 mg/kg	923 mg/kg	870 mg/kg					8.2 ± 3.9 min						0.263 nM			
O=c1ccc2ccc(OCCCN3CCN(c4ccccc4)CC3)cc2[nH]1 [Compound 37, 7-[3-(4-Phenylpiperazinyl)propoxy]carbostyril]		1.52 mg/kg									13.1 ± 6.0 min						0.295 nM	0.78 mg/kg		
O=C(CCCN1CCC(O)(c2ccc(Cl)cc2)CC1)c1ccc(F)cc1 [Haloperidol, reference compound]							5.3 ± 2.9 min	5.1 ± 2.5 min	9.3 ± 3.1 min	10.2 ± 3.7 min					43.01 ± 19.22 min	46.83 ± 13.94 min			2.31 mg/kg	66.81 ± 14.32 min

Reference: patent US4734416A, “Pharmaceutically useful carbostyril derivatives” (Otsuka Pharmaceutical Co., Ltd., priority 1978, dated 1988)
